Test results published in patent publication US12077503B2, “Substituted cyclic amides and their use as herbicides” (FMC CORPORATION, priority 2015, dated 2024).

Experiments:
Type in all cases: in vivo
Kochia (Kochia scoparia) [1] = experiment: Test A preemergence; settings: Bassia scoparia, pre-emergence, 240 h, 0 to 100 scale where 0 is no effect and 100 is complete control, read-out: Kochia plant response rating
Procedure, shortened: (§1)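 Visual injury scores from 0, no effect, to 100, complete control, were assigned versus untreated controls roughly 10 d after treatment in the greenhouse. Test chemicals, formulated with surfactant in a non-phytotoxic solvent, were applied to planted seeds as a preemergence soil spray or postemergence to one- to two-leaf plants 2 to 10 cm tall, in loam–sand soil.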

[2] = system: barnyardgrass (Echinochloa crus-galli); experiment: Test A preemergence; settings: Echinochloa crus-galli, pre-emergence, 240 h, 0 to 100 scale where 0 is no effect and 100 is complete control, read-out: Barnyardgrass plant response rating
Procedure, shortened: as §1

[3] = system: giant foxtail (Setaria faberii); experiment: Test A preemergence; settings: Setaria faberi, pre-emergence, 240 h, 0 to 100 scale where 0 is no effect and 100 is complete control, read-out: Foxtail, Giant plant response rating
Procedure, shortened: as §1

[4] = system: pigweed (Amaranthus retroflexus); experiment: Test A preemergence; settings: Amaranthus retroflexus, pre-emergence, 240 h, 0 to 100 scale where 0 is no effect and 100 is complete control, read-out: Pigweed plant response rating
[5] = system: ragweed (common ragweed, Ambrosia elatior); experiment: Test A preemergence; settings: Ambrosia artemisiifolia, pre-emergence, 240 h, 0 to 100 scale where 0 is no effect and 100 is complete control, read-out: Ragweed plant response rating
Procedure, shortened: as §1

[6] = system: ryegrass, Italian (Italian ryegrass, Lolium multiflorum); experiment: Test A preemergence; settings: Lolium multiflorum, pre-emergence, 240 h, 0 to 100 scale where 0 is no effect and 100 is complete control, read-out: Ryegrass, Italian plant response rating
Procedure, shortened: as §1

[7] = system: Galium (catchweed bedstraw, Galium aparine); experiment: Test A postemergence; settings: Galium, post-emergence, 240 h
Procedure, shortened: as §1

Kochia (Kochia scoparia) [8] = experiment: Test A postemergence; settings: Bassia scoparia, post-emergence, 240 h
Procedure, shortened: as §1

[9] = system: barnyardgrass (Echinochloa crus-galli); experiment: Test A postemergence; settings: Echinochloa crus-galli, post-emergence, 240 h
Procedure, shortened: as §1

[10] = system: blackgrass (Alopecurus myosuroides); experiment: Test A postemergence; settings: Alopecurus myosuroides, post-emergence, 240 h
Procedure, shortened: as §1

corn (Zea mays) = experiment: Test A postemergence; settings: Zea mays, post-emergence, 240 h
Procedure, shortened: as §1

[11] = system: giant foxtail (Setaria faberii); experiment: Test A postemergence; settings: Setaria faberi, post-emergence, 240 h
Procedure, shortened: as §1

[12] = system: pigweed (Amaranthus retroflexus); experiment: Test A postemergence; settings: Amaranthus retroflexus, post-emergence, 240 h
Procedure, shortened: as §1

[13] = system: ragweed (common ragweed, Ambrosia elatior); experiment: Test A postemergence; settings: Ambrosia artemisiifolia, post-emergence, 240 h
Procedure, shortened: as §1

[14] = system: ryegrass, Italian (Italian ryegrass, Lolium multiflorum); experiment: Test A postemergence; settings: Lolium multiflorum, post-emergence, 240 h
Procedure, shortened: as §1

[15] = system: wheat (Triticum aestivum); experiment: Test A postemergence; settings: Triticum aestivum, post-emergence, 240 h
Procedure, shortened: as §1

[16] = system: barnyardgrass (Echinochloa crus-galli); experiment: Test B flooded paddy test; settings: Echinochloa crus-galli, 250 g ai/ha, Flood; 0 to 100 scale where 0 is no effect and 100 is complete control; read-out: Barnyardgrass plant response rating
Procedure, shortened: (§2)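 Visual ratings (0 none to 100 complete control) are relative to untreated plants, taken 13–15 d after treatment in a greenhouse. Test material went straight into floodwater standing 3 cm above the soil, kept constant, on plants at the 2-leaf stage.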

[17] = system: ducksalad (Heteranthera limosa); experiment: Test B flooded paddy test; settings: Heteranthera limosa, 250 g ai/ha, Flood; 0 to 100 scale where 0 is no effect and 100 is complete control; read-out: Ducksalad plant response rating
Procedure, shortened: as §2

rice (Oryra sativa) = experiment: Test B flooded paddy test; settings: Oryza sativa, 250 g ai/ha, Flood; 0 to 100 scale where 0 is no effect and 100 is complete control; read-out: Rice plant response rating
Procedure, shortened: as §2

[18] = system: sedge, umbrella (small-flower umbrella sedge, Cyperus difformis); experiment: Test B flooded paddy test; settings: Cyperus difformis, 250 g ai/ha, Flood; 0 to 100 scale where 0 is no effect and 100 is complete control; read-out: Sedge, Umbrella plant response rating
Procedure, shortened: as §2

[19] = 125 g ai/ha, preemergence, approx. 10 d

With `COCOCc1ccccc1NC(=O)[C@H]1C(=O)N(C)C[C@@H]1c1cccc(C(F)(F)F)c1` (racemic) [Compound 1161] the pest or weed control at 31 g/ha (Kochia (Kochia scoparia) [1]; 31 g ai/ha, Preemergence) was 0%, the pest or weed control at 125 g/ha (Kochia (Kochia scoparia) [1]; [19]) was 0% and the pest or weed control at 31 g/ha ([2]; 31 g ai/ha, Preemergence) was 0%. It also gave a pest or weed control at 125 g/ha [2, 19] of 0%, a pest or weed control at 31 g/ha ([3]; 31 g ai/ha, Preemergence) of 0% and a pest or weed control at 125 g/ha [3, 19] of 20%. It also gave a pest or weed control at 31 g/ha ([4]; 31 g ai/ha, Preemergence) of 0%, a pest or weed control at 125 g/ha [4, 19] of 0% and a pest or weed control at 31 g/ha ([5]; 31 g ai/ha, Preemergence) of 0%. For the same compound, the pest or weed control at 125 g/ha [5, 19] was 0%, the pest or weed control at 31 g/ha ([6]; 31 g ai/ha, Preemergence) was 0% and the pest or weed control at 125 g/ha [6, 19] was 0%. The pest or weed control at 125 g/ha ([7]; 125 g ai/ha, postemergence, visual injury vs untreated controls after approx. 10 d, 0 = no effect, 100 = complete control, read-out: Galium plant response rating (0 to 100 scale)) was 0%, the pest or weed control at 31 g/ha ([7]; Postemergence, 31 g ai/ha, visual injury after approx. 10 d, 0 to 100 scale, 0 no effect, 100 complete control, read-out: Plant response rating, Galium) was 0% and the pest or weed control at 125 g/ha (Kochia (Kochia scoparia) [8]; 125 g ai/ha, postemergence, visual injury vs untreated controls after approx. 10 d, 0 = no effect, 100 = complete control, read-out: Kochia plant response rating (0 to 100 scale)) was 0%. For the same compound, the pest or weed control at 31 g/ha (Kochia (Kochia scoparia) [8]; Postemergence, 31 g ai/ha, visual injury after approx. 10 d, 0 to 100 scale, 0 no effect, 100 complete control, read-out: Plant response rating, Kochia) was 0%, the pest or weed control at 125 g/ha ([9]; 125 g ai/ha, postemergence, visual injury vs untreated controls after approx. 10 d, 0 = no effect, 100 = complete control, read-out: Barnyardgrass plant response rating (0 to 100 scale)) was 0% and the pest or weed control at 31 g/ha ([9]; Postemergence, 31 g ai/ha, visual injury after approx. 10 d, 0 to 100 scale, 0 no effect, 100 complete control, read-out: Plant response rating, Barnyardgrass) was 0%. It also gave a pest or weed control at 125 g/ha ([10]; 125 g ai/ha, postemergence, visual injury vs untreated controls after approx. 10 d, 0 = no effect, 100 = complete control, read-out: Blackgrass plant response rating (0 to 100 scale)) of 0%, a pest or weed control at 31 g/ha ([10]; Postemergence, 31 g ai/ha, visual injury after approx. 10 d, 0 to 100 scale, 0 no effect, 100 complete control, read-out: Plant response rating, Blackgrass) of 0% and a plant injury at 125 g/ha (corn (Zea mays); 125 g ai/ha, postemergence, visual injury vs untreated controls after approx. 10 d, 0 = no effect, 100 = complete control, read-out: Corn plant response rating (0 to 100 scale)) of 0%. The Corn plant response rating (crop injury, 0 = no effect, 100 = complete kill) at 31 g/ha (corn (Zea mays); Postemergence, 31 g ai/ha, visual injury after approx. 10 d, 0 to 100 scale, 0 no effect, 100 complete control) was 0%, the pest or weed control at 125 g/ha ([11]; 125 g ai/ha, postemergence, visual injury vs untreated controls after approx. 10 d, 0 = no effect, 100 = complete control, read-out: Foxtail, Giant plant response rating (0 to 100 scale)) was 0% and the pest or weed control at 31 g/ha ([11]; Postemergence, 31 g ai/ha, visual injury after approx. 10 d, 0 to 100 scale, 0 no effect, 100 complete control, read-out: Plant response rating, Foxtail, Giant) was 0%. The pest or weed control at 125 g/ha ([12]; 125 g ai/ha, postemergence, visual injury vs untreated controls after approx. 10 d, 0 = no effect, 100 = complete control, read-out: Pigweed plant response rating (0 to 100 scale)) was 0%, the pest or weed control at 31 g/ha ([12]; Postemergence, 31 g ai/ha, visual injury after approx. 10 d, 0 to 100 scale, 0 no effect, 100 complete control, read-out: Plant response rating, Pigweed) was 0% and the pest or weed control at 125 g/ha ([13]; 125 g ai/ha, postemergence, visual injury vs untreated controls after approx. 10 d, 0 = no effect, 100 = complete control, read-out: Ragweed plant response rating (0 to 100 scale)) was 0%. The pest or weed control at 31 g/ha ([13]; Postemergence, 31 g ai/ha, visual injury after approx. 10 d, 0 to 100 scale, 0 no effect, 100 complete control, read-out: Plant response rating, Ragweed) was 0%, the pest or weed control at 125 g/ha ([14]; 125 g ai/ha, postemergence, visual injury vs untreated controls after approx. 10 d, 0 = no effect, 100 = complete control, read-out: Ryegrass, Italian plant response rating (0 to 100 scale)) was 0% and the pest or weed control at 31 g/ha ([14]; Postemergence, 31 g ai/ha, visual injury after approx. 10 d, 0 to 100 scale, 0 no effect, 100 complete control, read-out: Plant response rating, Ryegrass, Italian) was 0%. It also gave a plant injury at 125 g/ha ([15]; 125 g ai/ha, postemergence, visual injury vs untreated controls after approx. 10 d, 0 = no effect, 100 = complete control, read-out: Wheat plant response rating (0 to 100 scale)) of 0%, a plant injury at 31 g/ha ([15]; Postemergence, 31 g ai/ha, visual injury after approx. 10 d, 0 to 100 scale, 0 no effect, 100 complete control, read-out: Plant response rating, Wheat) of 0% and a pest or weed control at 250 g/ha [16] of 0%. For the same compound, the pest or weed control at 250 g/ha [17] was 0%, the pest or weed control at 250 g/ha (rice (Oryra sativa)) was 15% and the pest or weed control at 250 g/ha [18] was 0%.
